Data as given in paper PMC6272564, “Synthesis and Biological Evaluation of Novel 6-Hydroxy-benzo[d][1,3]oxathiol-2-one Schiff Bases as Potential Anticancer Agents” (Molecules, 2015).

Experiments:
[1] = Cell membrane disruption (hemolysis) of mouse erythrocytes; format: cell-based; settings: mouse erythrocytes (2% suspension), 2% mouse erythrocyte suspension, room temperature, tested 1.5 to 200 μg/mL, lysis 50% of Triton X-100
Protocol: The mechanical stability of red blood cells is a good parameter for in vitro screening of unspecific cytotoxicity, since the membrane of erythrocyte can suffer significant changes in its structural properties. In order to verify whether the cytotoxicity of the compounds was linked to the membrane disruption, the ability to induce lysis of mouse erythrocytes was investigated, and no membrane damage was found for all tested compounds (EC50 > 200 μg/mL).
The test was performed in 96-well plates using a 2% mouse erythrocyte suspension in 0.85% NaCl containing 10 mM CaCl2. The compounds diluted as mentioned above were tested at concentrations ranging from 1.5 to 200 μg/mL. After incubation at room temperature for 30 min and centrifugation, the supernatant was removed and the liberated hemoglobin was measured spectrophotometrically at 540 nm. DMSO was used as a negative control and Triton X-100 (1%) was used as positive control. EC50 is the calculated effective dose that induced lysis on 50% that of the Triton X-100 [37].

SKMEL-19 = assay: MTT cytotoxicity assay, SKMEL-19 melanoma cells; format: cell-based, human; settings: IC50 with 95% confidence interval, triplicate, 72 h incubation
Protocol: (§1) In vitro anticancer activity of compounds 2, 3 and 4a–r was evaluated against three human cancer cell lines in comparison to doxorubicin by using MTT assay.
(§2) Compounds (0.312–20 μM) were tested for cytotoxic activity against three cancer cell lines: ACP-03 (gastric), SKMEL-19 (melanoma) and HCT-116 (colon). All cell lines were maintained in DMEM medium supplemented with 10% fetal bovine serum, 2 mM glutamine, 100 U/mL penicillin, and […] streptomycin at 37 °C with 5% CO2. Each compound was dissolved in DMSO and diluted with water to obtain a concentration of 20 μM. They were incubated with the cells for 72 h. The negative control received the same amount of DMSO (0.005% in the highest concentration). Doxorrubicin was used as a positive control. The cell viability was determined by reduction of the yellow dye 3-(4,5-dimethyl-2-thiazol)-2,5-diphenyl-2H-tetrazolium bromide (MTT) to a blue formazan product after 48 h as described by Mosmann.

HCT-116 = assay: MTT cytotoxicity assay, HCT-116 colon cancer cells; format: cell-based; settings: Homo sapiens, IC50 with 95% confidence interval, triplicate, 72 h incubation
Protocol: as §1, §2

ACP-03 = assay: MTT cytotoxicity assay, ACP-03 gastric cancer cells; format: cell-based, human; settings: IC50 with 95% confidence interval, triplicate, 72 h incubation
Protocol: as §1, §2

| SMILES | melting point | EC50 at 30 min [1] | IC50 (SKMEL-19; Homo sapiens, SK-MEL19, 72 h) | IC50 (HCT-116) | IC50 (ACP-03; Homo sapiens, 72 h) | IC50 (ACP-03) | IC50 (SKMEL-19) |
| --- | --- | --- | --- | --- | --- | --- | --- |
| O=c1oc2cc(O)c([N+](=O)[O-])cc2s1 [Compound 2, 6-Hydroxy-5-nitrobenzo[d][1,3]oxathiol-2-one] | 180 to 182 °C | > 200 µg/mL | > 10 µM | > 10 µM | > 10 µM | – | – |
| Nc1cc2sc(=O)oc2cc1O [Compound 3, 5-Amino-6-hydroxybenzo[d][1,3]oxathiol-2-one] | 194 to 195 °C | > 200 µg/mL | > 10 µM | > 10 µM | > 10 µM | – | – |
| N#Cc1ccc(/C=N/c2cc3sc(=O)oc3cc2O)cc1 [Compound 4a, (E)-4-((6-Hydroxy-2-oxobenzo[d][1,3]oxathiol-5-ylimino)methyl)benzonitrile] | 261 to 263 °C | > 200 µg/mL | > 10 µM | > 10 µM | > 10 µM | – | – |
| O=c1oc2cc(O)c(/N=C/c3ccc([N+](=O)[O-])cc3)cc2s1 [Compound 4b, (E)-6-Hydroxy-5-(4-nitrobenzylideneamino)benzo[d][1,3]oxathiol-2-one] | 223 to 224 °C | > 200 µg/mL | > 10 µM | > 10 µM | < 5 µM | 4.8 µM | – |
| O=c1oc2cc(O)c(/N=C/c3cccc([N+](=O)[O-])c3)cc2s1 [Compound 4c, (E)-6-Hydroxy-5-(3-nitrobenzylideneamino)benzo[d][1,3]oxathiol-2-one] | 220 to 222 °C | > 200 µg/mL | > 10 µM | > 10 µM | > 10 µM | – | – |
| O=c1oc2cc(O)c(/N=C/c3ccc(Br)cc3)cc2s1 [Compound 4d, (E)-5-(4-Bromobenzylideneamino)-6-hydroxybenzo[d][1,3]oxathiol-2-one] | 211 to 213 °C | > 200 µg/mL | > 10 µM | > 10 µM | > 10 µM | – | – |
| O=c1oc2cc(O)c(/N=C/c3cccc(Br)c3)cc2s1 [Compound 4e, (E)-5-(3-Bromobenzylideneamino)-6-hydroxybenzo[d][1,3]oxathiol-2-one] | 179 to 180 °C | > 200 µg/mL | > 10 µM | > 10 µM | > 10 µM | – | – |
| O=c1oc2cc(O)c(/N=C/c3ccc(Cl)cc3)cc2s1 [Compound 4f, (E)-5-(4-Chlorobenzylideneamino)-6-hydroxybenzo[d][1,3]oxathiol-2-one] | 210 to 212 °C | > 200 µg/mL | > 10 µM | > 10 µM | > 10 µM | – | – |
| O=c1oc2cc(O)c(/N=C/c3ccc(Cl)cc3Cl)cc2s1 [Compound 4g, (E)-5-(2,4-Dichlorobenzylideneamino)-6-hydroxybenzo[d][1,3]oxathiol-2-one] | 221 to 223 °C | > 200 µg/mL | > 10 µM | > 10 µM | > 10 µM | – | – |
| O=c1oc2cc(O)c(/N=C/c3ccccc3)cc2s1 [Compound 4h, (E)-5-(Benzylideneamino)-6-hydroxybenzo[d][1,3]oxathiol-2-one] | 232 to 233 °C | > 200 µg/mL | > 10 µM | > 10 µM | > 10 µM | – | – |
| CN(C)c1ccc(/C=N/c2cc3sc(=O)oc3cc2O)cc1 [Compound 4i, (E)-5-(4-(Dimethylamino)benzylideneamino)-6-hydroxybenzo[d][1,3]oxathiol-2-one] | 199 to 201 °C | > 200 µg/mL | > 10 µM | > 10 µM | > 10 µM | – | – |
| COc1ccc(/C=N/c2cc3sc(=O)oc3cc2O)cc1 [Compound 4j, (E)-6-Hydroxy-5-(4-methoxybenzylideneamino)benzo[d][1,3]oxathiol-2-one] | 177 to 178 °C | > 200 µg/mL | > 10 µM | > 10 µM | > 10 µM | – | – |
| O=c1oc2cc(O)c(/N=C/c3ccccc3O)cc2s1 [Compound 4k, (E)-6-Hydroxy-5-(2-hydroxybenzylideneamino)benzo[d][1,3]oxathiol-2-one] | 252 to 253 °C | > 200 µg/mL | > 10 µM | > 10 µM | > 10 µM | – | – |
| O=c1oc2cc(O)c(/N=C/c3cccc(O)c3O)cc2s1 [Compound 4l, (E)-5-(2,3-Dihydroxybenzylideneamino)-6-hydroxybenzo[d][1,3]oxathiol-2-one] | 244 to 246 °C | > 200 µg/mL | > 10 µM | > 10 µM | > 10 µM | – | – |
| O=c1oc2cc(O)c(/N=C/c3ccc(O)cc3O)cc2s1 [Compound 4m, (E)-5-(2,4-Dihydroxybenzylideneamino)-6-hydroxybenzo[d][1,3]oxathiol-2-one] | 284 to 285 °C (dec.) | > 200 µg/mL | 9.4 µM | > 10 µM | > 10 µM | – | – |
| O=c1oc2cc(O)c(/N=C/c3cc(O)ccc3O)cc2s1 [Compound 4n, (E)-5-(2,5-Dihydroxybenzylideneamino)-6-hydroxybenzo[d][1,3]oxathiol-2-one] | 261 to 263 °C | > 200 µg/mL | 5.6 µM | > 10 µM | > 10 µM | – | – |
| O=c1oc2cc(O)c(/N=C/c3cc([N+](=O)[O-])ccc3O)cc2s1 [Compound 4o, (E)-6-Hydroxy-5-(2-hydroxy-5-nitrobenzylideneamino)benzo[d][1,3]oxathiol-2-one] | 293 to 294 °C | > 200 µg/mL | < 5 µM | > 10 µM | > 10 µM | – | 2.8 µM |
| O=c1oc2cc(O)c(/N=C/c3cc(Br)ccc3O)cc2s1 [Compound 4p, (E)-5-(5-Bromo-2-hydroxybenzylideneamino)-6-hydroxybenzo[d][1,3]oxathiol-2-one] | 250 to 252 °C | > 200 µg/mL | > 10 µM | > 10 µM | > 10 µM | – | – |
| O=c1oc2cc(O)c(/N=C/c3ccc(-c4ccccn4)cc3)cc2s1 [Compound 4q, (E)-6-Hydroxy-5-(4-(pyridin-2-yl)benzylideneamino)benzo[d][1,3]oxathiol-2-one] | 201 to 203 °C | > 200 µg/mL | > 10 µM | > 10 µM | > 10 µM | – | – |
| O=c1oc2cc(O)c(/N=C/c3ccc4c(c3)OCO4)cc2s1 [Compound 4r, (E)-5-(Benzo[d][1,3]dioxol-5-ylmethyleneamino)-6-hydroxybenzo[d][1,3]oxathiol-2-one] | 232 to 233 °C | > 200 µg/mL | > 10 µM | > 10 µM | > 10 µM | – | – |
| COc1cccc2c1C(=O)c1c(O)c3c(c(O)c1C2=O)C[C@@](O)(C(=O)CO)C[C@@H]3O[C@H]1C[C@H](N)[C@H](O)[C@H](C)O1 [Dox, Doxorubicin, reference compound] | – | > 200 µg/mL | 0.045 µM | 0.1 µM | 0.274 µM | – | – |
